Test results reported in US20230250182A1, “METHODS FOR TREATING CANCER OR VON-HIPPEL LINDAU DISEASE USING A COMBINATION OF A PD-1 ANTAGONIST, A HIF-2 ALPHA INHIBITOR, AND LENVATINIB OR A PHARMACEUTICALLY ACCEPTABLE SALT THEREOF” (Merck Sharp & Dohme LLC, priority 2020, published 2023).

Tests used:
KPC-2838c3 cells = assay: VHL proficient mouse syngeneic pancreatic tumor model; type: in vivo, C57BL/6J mice; settings: for Final CRs (complete tumor regressions) / Final PRs (partial tumor regressions): 10 mice per group; for Final CRs (complete tumor regressions): CR = no observable tumor; for Final PRs (partial tumor regressions): PR = tumor volume lower than original size when treatment began; for TGI (tumor growth inhibition): Day 24, MK-6482 3 mg/kg BID oral, lenvatinib 10 mg/kg QD oral, anti-PD-1 10 mg/kg i.p. every 5 days
From the text: Prior to treatment initiation, female C57BL/6J mice aged 7 weeks weighing between 18 to 21 grams were anesthetized and injected into the rear flank with 0.5×10^6 log-phase sub-confluent KPC-2838c3 cells. Ten (10) days later when the mean tumor volume of inoculated animals reached approximately 95 mm^3, mice were pair-matched into 8 treatment groups consisting of 10 mice per group. Treatment groups consisted of: 1) 0.5% methylcellulose (Vehicle)+Isotype mouse IgG1 antibody (mIgG1); 2) MK-6482+mIgG1; 3) Lenvatinib+mIgG1; 4) Vehicle+anti-mouse PD-1 IgG1 antibody; 5) MK-6482+anti-PD-1; 6) Lenvatinib+anti-PD-1; 7) MK-6482+Lenvatinib; 8) MK-6482+Lenvatinib+anti-PD-1. Vehicle and MK-6482 were orally gavage-dosed twice daily (BID) at 3 mg/kg body weight. Lenvatinib was orally dosed once daily (QD) at 10 mg/kg body weight. Isotype control, a mouse monoclonal antibody specific for adenoviral hexon of the isotype IgG1, and anti-PD-1 antibodies were dosed intraperitoneally every 5 days at 10 mg/kg body weight. Start of treatments was considered Day 0 and dosing based on schedules continued as described until Day 45. Caliper measurements of tumors and body weights were captured twice weekly. Statistical analyses were performed by one-way ANOVA with Tukey multiple comparison tests at the timepoints specified when treatment groups reached endpoints.
CRs were defined as no observable tumor whereas PRs were tumors whose volume was lower than the original tumor size when treatment began. There was no significant body weight loss or adverse events observed in any animals treated with the above therapies, indicating the treatments were well tolerated.

[1] = Phase 1 cross-over food-effect PK study of single dose MK-6482 in healthy volunteers; type: in vivo, human; settings: single dose of 120 mg, healthy female adult volunteers
[2] = FIH Phase 1 study of tolerability, safety, PK and PD of MK-6482 in participants with advanced solid tumors; type: in vivo, human
Procedure: As of 6 Sep. […] 52 additional participants with advanced RCC were treated in an expansion cohort (Part 1B) at the clinical dose of 120 mg QD.

[3] = Phase 2 open-label efficacy and safety study in VHL disease associated RCC; type: in vivo, human; settings: 120 mg QD, 61 participants with VHL disease associated RCC
From the text: A Phase 2, open-label efficacy and safety study in participants with VHL disease associated RCC is ongoing. As of 6 Sep.

[4] = combined dose escalation and expansion cohorts
[5] = dose escalation (Part 1A) 20 to 240 mg QD and 120 mg BID

Compound	Final CRs (complete tumor regressions) (KPC-2838c3 cells)	Final PRs (partial tumor regressions) (KPC-2838c3 cells)	TGI (tumor growth inhibition) (KPC-2838c3 cells)	delay of time to peak MK-6482 exposure, median difference (Fed-Fasted) [1]	most common adverse event (AE) reported: headache [1]	effect of high fat, high calorie meal on extent of MK-6482 exposure ([1]; fed vs fasted)	lowering of maximum plasma MK-6482 concentration by high fat, high calorie meal ([1]; fed vs fasted)	Grade 3 event of hypoxia (DLT) ([2]; 120 mg BID cohort)	accumulation from Day 1 to Day 15 ([2]; 120 mg QD expansion cohort (Part 1B))	Cmax ([2]; 120 mg QD expansion cohort (Part 1B), Day 15, read-out: mean steady state Cmax)	Grade 4 event of thrombocytopenia (DLT) ([2]; 240 mg QD cohort)	most common AEs (occurring in ≥20% of participants) [2, 4]	most common Grade 3 AEs (in ≥5% of participants) [2, 4]	MTD [2, 5]	treatment-related DLTs observed [2, 5]	Vd/F ([2]; human, in vivo)	estimated CL/F ([2]; human, in vivo)	Tmax ([2]; human, in vivo, participants with advanced solid tumors, oral, read-out: median tmax)	exposure versus dose ([2]; participants with advanced solid tumors)	most common AE of ≥Grade 3 toxicity (reported by ≥5% of participants) [3]
COc1cc2nccc(Oc3ccc(NC(=O)NC4CC4)c(Cl)c3)c2cc1C(N)=O [Lenvatinib, 4-[3-chloro-4-(cyclopropylaminocarbonyl)aminophenoxy]-7-methoxy-6-quinolinecarboxamide]	0/10 PRs, 0/10 CRs	0/10 PRs, 0/10 CRs	90%	–	–	–	–	–	–	–	–	–	–	–	–	–	–	–	–	–
CS(=O)(=O)c1ccc(Oc2cc(F)cc(C#N)c2)c2c1[C@H](O)[C@H](F)[C@@H]2F [MK-6482, 3-[(1S,2S,3R)-2,3-difluoro-1-hydroxy-7-methylsulfonyl-indan-4-yl]oxy-5-fluoro-benzonitrile]	0/10 PRs, 0/10 CRs	0/10 PRs, 0/10 CRs	16%	2 h	12.5%	did not affect	approximately 35%	1	1.5 fold	4.67 µM	1	anemia, fatigue, dyspnea, nausea, and peripheral edema	anemia and hypoxia	not reached	2	106 to 266 L	5.22 to 14.4 L/h	1 to 2.8 h	exposure increased with dose	Fatigue
